What was measured:
[1] = test system: PC-3; assay: Growth inhibition of human PC3 cells after 4 days by SRB assay; type: functional; conditions: PC-3, 96 h
[2] = test system: A549; assay: Growth inhibition of human A549 cells after 4 days by SRB assay; type: functional; conditions: A549, 96 h

| Compound | GI50 [1] [nM] | GI50 [2] [nM] |
| --- | --- | --- |
| COCCOCCC(=O)NCCCC[C@H]1C(=O)C(C)(C)[C@@H](O)CC(=O)O[C@H](/C(C)=C/c2csc(C)n2)C[C@@H]2O[C@]2(C)CCC[C@H](C)[C@@H]1O | 1.9 | 0.9 |
| C/C(=C\c1csc(C)n1)[C@@H]1C[C@@H]2O[C@]2(C)CCC[C@H](C)[C@H](O)[C@@H](C)C(=O)C(C)(C)[C@@H](O)CC(=O)O1 [PATUPILONE] | 1.7 | 0.7 |
| CC(=O)NCCCC[C@H]1C(=O)C(C)(C)[C@@H](O)CC(=O)O[C@H](/C(C)=C/c2csc(C)n2)C[C@@H]2O[C@]2(C)CCC[C@H](C)[C@@H]1O | 2 | 1 |
| CC(=O)O[C@H]1C(=O)[C@@]2(C)[C@H]([C@H](OC(=O)c3ccccc3)[C@]3(O)C[C@H](OC(=O)[C@H](O)[C@@H](NC(=O)c4ccccc4)c4ccccc4)C(C)=C1C3(C)C)[C@]1(OC(C)=O)CO[C@@H]1C[C@@H]2O [PACLITAXEL] | 5.8 | 3.7 |

Reference: ChEMBL document CHEMBL4033765, “Synthesis and Evaluation of a Linkable Functional Group-Equipped Analogue of the Epothilones” (2017)
